Test results: PubChem BioAssay AID651799 (The Scripps Research Institute Molecular Screening Center, 2012)
Activity calls are given as the source filed them. How the calls were made is not given here.

Molecular target: Nuclear receptor coactivator 2 (Homo sapiens) (UniProt Q15596)
Experiment: SRC2 (NCOA2) coactivator inhibitors, late-stage follow-up, selectivity assay for SRC1 inhibitor project, cell-based, luciferase reporter, luminescence (AID 651799)

Sequence of Nuclear receptor coactivator 2 (Homo sapiens) (Q15596 whole entry, looked up): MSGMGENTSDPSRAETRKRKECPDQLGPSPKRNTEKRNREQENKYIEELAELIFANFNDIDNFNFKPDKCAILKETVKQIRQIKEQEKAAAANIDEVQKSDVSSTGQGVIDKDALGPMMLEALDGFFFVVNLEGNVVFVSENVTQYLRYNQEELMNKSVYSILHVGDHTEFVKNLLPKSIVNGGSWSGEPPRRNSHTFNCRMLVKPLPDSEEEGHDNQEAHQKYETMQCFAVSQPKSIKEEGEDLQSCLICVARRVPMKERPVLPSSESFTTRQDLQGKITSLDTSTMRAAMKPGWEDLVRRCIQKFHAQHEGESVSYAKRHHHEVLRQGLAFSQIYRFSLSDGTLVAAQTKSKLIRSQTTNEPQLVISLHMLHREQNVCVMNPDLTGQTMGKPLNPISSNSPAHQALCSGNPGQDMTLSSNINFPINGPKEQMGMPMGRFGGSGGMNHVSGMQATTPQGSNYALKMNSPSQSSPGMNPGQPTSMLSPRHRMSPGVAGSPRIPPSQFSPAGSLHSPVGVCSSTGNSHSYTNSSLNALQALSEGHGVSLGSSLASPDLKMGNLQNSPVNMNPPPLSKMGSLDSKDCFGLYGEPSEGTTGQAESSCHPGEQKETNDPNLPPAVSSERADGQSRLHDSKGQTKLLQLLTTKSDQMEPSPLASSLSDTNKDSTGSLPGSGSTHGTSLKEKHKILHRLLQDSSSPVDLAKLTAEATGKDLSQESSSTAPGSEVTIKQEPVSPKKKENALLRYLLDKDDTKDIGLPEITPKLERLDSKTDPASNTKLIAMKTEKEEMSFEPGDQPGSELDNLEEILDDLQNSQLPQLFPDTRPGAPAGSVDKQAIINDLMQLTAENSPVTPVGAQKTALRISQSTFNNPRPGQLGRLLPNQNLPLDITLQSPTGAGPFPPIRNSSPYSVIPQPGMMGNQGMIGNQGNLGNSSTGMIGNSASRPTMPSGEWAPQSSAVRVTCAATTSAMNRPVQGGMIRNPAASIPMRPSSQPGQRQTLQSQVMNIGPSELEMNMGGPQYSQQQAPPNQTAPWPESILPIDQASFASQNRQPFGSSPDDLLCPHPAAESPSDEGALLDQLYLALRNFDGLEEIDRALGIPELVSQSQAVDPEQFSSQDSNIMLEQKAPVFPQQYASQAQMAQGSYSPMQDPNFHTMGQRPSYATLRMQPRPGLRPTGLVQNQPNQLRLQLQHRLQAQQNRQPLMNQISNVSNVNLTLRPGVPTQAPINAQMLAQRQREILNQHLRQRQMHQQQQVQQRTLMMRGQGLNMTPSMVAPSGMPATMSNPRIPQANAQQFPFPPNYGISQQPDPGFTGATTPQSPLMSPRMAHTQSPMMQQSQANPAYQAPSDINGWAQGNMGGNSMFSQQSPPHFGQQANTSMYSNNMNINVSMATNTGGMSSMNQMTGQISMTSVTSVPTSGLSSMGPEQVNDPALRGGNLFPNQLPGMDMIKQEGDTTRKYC

Row | IC50 | Structure (SMILES)
1 | inactive | COc1ccc(NC(=O)CN(C)C(=O)C2(c3ccccc3)CCCC2)cc1
2 | inactive | COc1ccc(Nc2ncnc3ccc(Br)cc23)c(OC)c1
